Columns and labels:
[1] = Patient peripheral blood / neutrophil recovery during treatment; assay type: in vivo, human; settings: one patient, 4 cycles of low-dose treatment (FIG. 10A, 11A)
Source text: FIGS. 10A and 10B show examples of visual representations of dynamic prediction of peripheral blood recovery determined using the method according to embodiments.
FIGS. 11A and 11B show examples of visual representations of retrospective comparisons of dynamic prediction of absolute neutrophils count (lines) determined using the method according to embodiments and patient clinical assessment of daily neutrophils count during treatment (dots).
The patient initially presented with granulocytic dysplasia that delayed neutrophil recovery.

leukemic blasts = experiment: Patient leukemia response to treatment (percentage of leukemic blasts in BM, clinical assessments compared with simulation); assay type: in vivo, human; settings: one patient
Source text: FIGS. 9A and 9B show examples of visual representations of retrospective comparisons of dynamic prediction of the overall percentage of abnormal cells/leukemic blasts (lines) determined using the method according to embodiments and patient clinical assessments (dots).
FIGS. 9A and 9B show examples of visualizations of dynamic prediction of the overall percentage of leukemic blasts. By showing the percentage of overall leukemic blasts (addition of all subclones) in graphs, the leukemic burden in BM can be visualized.

With Nc1ccn([C@@H]2O[C@H](CO)[C@@H](O)[C@@H]2O)c(=O)n1 [Ara-C, Cytosine Arabinoside] the hematological recovery [1] was “complete hematological recovery”, the treatment outcome (leukemic blasts; 2 cycles of low-dose treatment (FIG. 9A)) was “complete remission” and the leukemic blasts (leukemic blasts; 2 cycles of low-dose treatment (FIG. 9A), bone marrow) was under 5%. The treatment outcome (leukemic blasts; 4 cycles of low-dose treatment (FIG. 10A, 11A)) was “complete remission”.
